Results as given in patent US7138415B2, “Indolamid derivatives which possess glycogenphosphorylase inhibitory activity” (AstraZeneca AB, priority 2002, dated 2006).

Key:
[1] = conscious dogs; cited from earlier work
hepatocytes = settings: cited from earlier work
[2] = db/db and ob/ob mice; cited from earlier work
[3] = biological target: T1, Human recombinant liver glycogen phosphorylase α (hrl GPα) (Homo sapiens, UniProt P06737); test: Glycogen phosphorylase inhibition of glycogen degradation (multienzyme coupled assay, NADH fluorescence); format: biochemical; settings: glycogen degradation direction
T1 sequence (P06737 1-847): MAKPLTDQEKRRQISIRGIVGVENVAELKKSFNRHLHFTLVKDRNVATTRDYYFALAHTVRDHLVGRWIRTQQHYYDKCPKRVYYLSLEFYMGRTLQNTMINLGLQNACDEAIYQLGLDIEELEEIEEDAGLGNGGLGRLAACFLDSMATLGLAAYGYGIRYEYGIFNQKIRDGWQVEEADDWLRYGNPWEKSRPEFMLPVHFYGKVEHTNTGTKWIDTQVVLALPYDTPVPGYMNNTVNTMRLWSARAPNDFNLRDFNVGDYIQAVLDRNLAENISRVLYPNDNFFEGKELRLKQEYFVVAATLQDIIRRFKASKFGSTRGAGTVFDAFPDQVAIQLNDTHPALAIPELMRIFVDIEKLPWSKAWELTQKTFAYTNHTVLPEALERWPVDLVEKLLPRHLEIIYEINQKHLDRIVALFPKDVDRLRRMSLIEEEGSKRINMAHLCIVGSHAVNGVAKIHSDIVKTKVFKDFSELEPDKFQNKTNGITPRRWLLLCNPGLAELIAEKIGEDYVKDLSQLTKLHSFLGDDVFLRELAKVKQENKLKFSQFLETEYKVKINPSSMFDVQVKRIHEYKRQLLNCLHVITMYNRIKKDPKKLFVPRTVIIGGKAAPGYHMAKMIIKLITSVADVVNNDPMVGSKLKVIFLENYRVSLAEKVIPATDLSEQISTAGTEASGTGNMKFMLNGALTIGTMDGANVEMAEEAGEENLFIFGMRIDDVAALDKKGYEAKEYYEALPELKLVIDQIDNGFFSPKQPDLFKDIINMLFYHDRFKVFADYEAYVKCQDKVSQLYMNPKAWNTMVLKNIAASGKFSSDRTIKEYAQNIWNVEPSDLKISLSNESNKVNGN
Description: The activity of the compounds is alternatively determined by measuring the inhibitory effect of the compounds on glycogen degradation, the production of glucose-1-phosphate from glycogen is monitored by the multienzyme coupled assay, as described in EP 0 846 464 A2, general method of Pesce et al (Pesce, M A, Bodourian, S H, Harris, R C, and Nicholson, J F (1977) Clinical Chemistry 23, […]). The reactions were in 384well microplate format in a volume of 50 μl. The change in fluorescence due to the conversion of the co-factor NAD to NADH is measured at 340 nm excitation, 465 nm emission in a Tecan Ultra Multifunctional Microplate Reader. The reaction is in 50 mM HEPES, 3.5 mM KH2PO4, 2.5 mM MgCl2, 2.5mM ethylene glycol-bis(b-aminoethyl ether) N,N,N′,N′-tetraacetic acid, 100 mM KCl, 8mM D-(+)-glucose pH7.2, containing 0.5 mM dithiothreitol, the assay buffer solution. Human recombinant liver glycogen phosphorylase α (hrl GPα) 20 nM is pre-incubated in assay buffer solution with 6.25 mM NAD, 1.25 mg type III glycogen at 1.25 mg ml^−1 the reagent buffer, for 30 minutes. […] The non-inhibited activity of GPα is measured in the presence of 10 μl 5% DMSO in assay buffer solution and maximum inhibition measured in the presence of 5 mgs ml^−1 N-ethylmaleimide. […] Relative Fluoresence Units (RFUs) are measured at 340 nm excitation, 465 nm emission. […]

| IC50 [3] | Compound | arterial plasma glucose following a glucagon challenge [1] | hepatic glucose output following a glucagon challenge [1] | glucagon stimulated glycogenolysis (hepatocytes) | glucose output in hepatocytes (hepatocytes) | plasma glucose concentration [2] |
| --- | --- | --- | --- | --- | --- | --- |
|  | CCN1C(C)=C(C(=O)OC(C)C)C(c2ccccc2Cl)C2=C1COC2=O (stereo not drawn) [Bay R 3401] | reduced significantly | reduced significantly |  |  |  |
|  | CN(C)C(=O)[C@H](O)[C@H](Cc1ccccc1)NC(=O)c1cc2cc(Cl)ccc2[nH]1 [CP91149] |  |  | reduce | reduce | reduced, in a dose related manner |
|  | O=C(N[C@@H](Cc1ccc(F)cc1)C(=O)N1CCC(O)CC1)c1cc2cc(Cl)ccc2[nH]1 [CP320626] |  |  | reduce | reduce | reduced, in a dose related manner |
| 7.4 µM | O=C(CN(CCO)Cc1ccccc1)N[C@@H]1c2ccccc2C[C@H]1NC(=O)c1cc2cc(Cl)ccc2[nH]1 [Example 17, 5-Chloro-N-[(1R,2R)-1-({[(2-hydroxyethyl)(phenylmethyl)amino]acetyl}amino)-2,3-dihydro-1H-inden-2-yl]-1H-indole-2-carboxamide] |  |  |  |  |  |
